Data as given in ChEMBL document CHEMBL1142149, “In vitro activities of the lipopeptides palmitoyl (Pal)-Lys-Lys-NH(2) and Pal-Lys-Lys alone and in combination with antimicrobial agents against multiresistant gram-positive cocci” (2007).
Values after ≈ are worked out from the molar mass of the structure shown. Active and inactive are the calls of the source. The calls are words filed in the database; no cut-off is given here.

Columns and labels:
Staphylococcus aureus [1] = experiment: Antimicrobial activity against methicillin-resistant Staphylococcus aureus ATCC 43300; assay type: functional; details: for MIC50 / MIC90: Staphylococcus aureus, ATCC 43300
Erythrocyte [2] = experiment: Effect on hemolytic activity in human RBC above 20 mg/liter; assay type: functional, cell-based
Enterococcus faecalis [3] = experiment: Antimicrobial activity against vancomycin-resistant Enterococcus faecalis ATCC 51299; assay type: functional; details: for MIC50 / MIC90: Enterococcus faecalis, ATCC 51299
Prescottella equi = experiment: Antimicrobial activity against Rhodococcus equi ATCC 6939; assay type: functional; details: for MIC50 / MIC90: Rhodococcus (subgen. Prescottella) equi, ATCC 6939
Streptococcus pyogenes = experiment: Antimicrobial activity against Streptococcus pyogenes ATCC 19615; assay type: functional; details: for MIC50 / MIC90: Streptococcus pyogenes, ATCC 19615
Staphylococcus aureus [4] = experiment: Antimicrobial activity against methicillin-susceptible Staphylococcus aureus ATCC 29213; assay type: functional; details: for MIC50 / MIC90: Staphylococcus aureus, ATCC 29213
Enterococcus faecalis [5] = experiment: Antimicrobial activity against vancomycin-susceptible Enterococcus faecalis ATCC 29212; assay type: functional; details: for MIC50 / MIC90: Enterococcus faecalis, ATCC 29212
Erythrocyte [6] = experiment: Effect on hemolytic activity in human RBC above 50 mg/liter; assay type: functional, cell-based

Structure (SMILES)	MIC50 (Staphylococcus aureus [1]) [µg/mL]	MIC90 (Staphylococcus aureus [1]) [µg/mL]	MIC50 (Enterococcus faecalis [3]) [µg/mL]	MIC90 (Enterococcus faecalis [3]) [µg/mL]	MBC50 (Prescottella equi) [µg/mL]	MBC90 (Prescottella equi) [µg/mL]	MIC50 (Prescottella equi) [µg/mL]	MIC90 (Prescottella equi) [µg/mL]	MBC50 (Streptococcus pyogenes) [µg/mL]	MBC90 (Streptococcus pyogenes) [µg/mL]	MIC50 (Streptococcus pyogenes) [µg/mL]	MIC90 (Streptococcus pyogenes) [µg/mL]	MBC50 (Staphylococcus aureus [4]) [µg/mL]	MBC90 (Staphylococcus aureus [4]) [µg/mL]	MIC50 (Staphylococcus aureus [4]) [µg/mL]	MIC90 (Staphylococcus aureus [4]) [µg/mL]	MBC50 (Enterococcus faecalis [5]) [µg/mL]	MBC90 (Enterococcus faecalis [5]) [µg/mL]	MIC50 (Enterococcus faecalis [5]) [µg/mL]	MIC90 (Enterococcus faecalis [5]) [µg/mL]	also measured
CCCCCCCCCCCCCCCC(=O)N[C@@H](CCCCN)C(=O)N[C@@H](CCCCN)C(N)=O	4 (≈ 7.82 µM)	8 (≈ 15.6 µM)	2 (≈ 3.91 µM)	4 (≈ 7.82 µM)	8 (≈ 15.6 µM)	32 (≈ 62.5 µM)	4 (≈ 7.82 µM)	16 (≈ 31.3 µM)	2 (≈ 3.91 µM)	4 (≈ 7.82 µM)	1 (≈ 1.95 µM)	2 (≈ 3.91 µM)	8 (≈ 15.6 µM)	16 (≈ 31.3 µM)	4 (≈ 7.82 µM)	8 (≈ 15.6 µM)	4 (≈ 7.82 µM)	8 (≈ 15.6 µM)	2 (≈ 3.91 µM)	4 (≈ 7.82 µM)	Activity (Erythrocyte [2]): Active; MBC90 (Enterococcus faecalis [3]): 16 µg/mL (≈ 31.3 µM)
CC[C@H]1OC(=O)[C@H](C)[C@@H](O[C@H]2C[C@@](C)(OC)[C@@H](O)[C@H](C)O2)[C@H](C)[C@@H](O[C@@H]2O[C@H](C)C[C@H](N(C)C)[C@H]2O)[C@](C)(O)C[C@@H](C)C(=O)[C@H](C)[C@@H](O)[C@]1(C)O [ERYTHROMYCIN]	4 (≈ 5.45 µM)	32 (≈ 43.6 µM)	16 (≈ 21.8 µM)	64 (≈ 87.2 µM)	32 (≈ 43.6 µM)	64 (≈ 87.2 µM)	0.5 (≈ 0.681 µM)	2 (≈ 2.73 µM)	8 (≈ 10.9 µM)	32 (≈ 43.6 µM)	4 (≈ 5.45 µM)	8 (≈ 10.9 µM)	16 (≈ 21.8 µM)	64 (≈ 87.2 µM)	4 (≈ 5.45 µM)	8 (≈ 10.9 µM)	32 (≈ 43.6 µM)	–	8 (≈ 10.9 µM)	32 (≈ 43.6 µM)	MBC50 (Staphylococcus aureus [1]): 32 µg/mL (≈ 43.6 µM)
C[C@@H](O)[C@H]1C(=O)N2C(C(=O)O)=C(SCCNC=N)C[C@H]12 [IMIPENEM ANHYDROUS]	16 (≈ 53.4 µM)	128 (≈ 428 µM)	16 (≈ 53.4 µM)	64 (≈ 214 µM)	8 (≈ 26.7 µM)	16 (≈ 53.4 µM)	0.25 (≈ 0.835 µM)	1 (≈ 3.34 µM)	1 (≈ 3.34 µM)	4 (≈ 13.4 µM)	0.5 (≈ 1.67 µM)	1 (≈ 3.34 µM)	4 (≈ 13.4 µM)	8 (≈ 26.7 µM)	0.5 (≈ 1.67 µM)	2 (≈ 6.68 µM)	16 (≈ 53.4 µM)	64 (≈ 214 µM)	4 (≈ 13.4 µM)	16 (≈ 53.4 µM)	MBC50 (Staphylococcus aureus [1]): 64 µg/mL (≈ 214 µM); MBC90 (Staphylococcus aureus [1]): 256 µg/mL (≈ 855 µM); MBC50 (Enterococcus faecalis [3]): 64 µg/mL (≈ 214 µM); MBC90 (Enterococcus faecalis [3]): 128 µg/mL (≈ 428 µM)
CC(=O)NC[C@H]1CN(c2ccc(N3CCOCC3)c(F)c2)C(=O)O1 [LINEZOLID]	0.5 (≈ 1.48 µM)	1 (≈ 2.96 µM)	1 (≈ 2.96 µM)	2 (≈ 5.93 µM)	8 (≈ 23.7 µM)	16 (≈ 47.4 µM)	0.5 (≈ 1.48 µM)	1 (≈ 2.96 µM)	1 (≈ 2.96 µM)	2 (≈ 5.93 µM)	0.5 (≈ 1.48 µM)	1 (≈ 2.96 µM)	1 (≈ 2.96 µM)	2 (≈ 5.93 µM)	0.5 (≈ 1.48 µM)	2 (≈ 5.93 µM)	2 (≈ 5.93 µM)	4 (≈ 11.9 µM)	1 (≈ 2.96 µM)	2 (≈ 5.93 µM)	MBC50 (Staphylococcus aureus [1]): 0.5 µg/mL (≈ 1.48 µM); MBC50 (Enterococcus faecalis [3]): 4 µg/mL (≈ 11.9 µM)
CC1(C)S[C@@H]2[C@H](NC(=O)[C@H](N)c3ccc(O)cc3)C(=O)N2[C@H]1C(=O)O [AMOXICILLIN]	32 (≈ 87.6 µM)	128 (≈ 350 µM)	16 (≈ 43.8 µM)	64 (≈ 175 µM)	8 (≈ 21.9 µM)	32 (≈ 87.6 µM)	1 (≈ 2.74 µM)	2 (≈ 5.47 µM)	4 (≈ 10.9 µM)	8 (≈ 21.9 µM)	0.25 (≈ 0.684 µM)	2 (≈ 5.47 µM)	8 (≈ 21.9 µM)	16 (≈ 43.8 µM)	1 (≈ 2.74 µM)	4 (≈ 10.9 µM)	16 (≈ 43.8 µM)	64 (≈ 175 µM)	4 (≈ 10.9 µM)	16 (≈ 43.8 µM)	MBC50 (Staphylococcus aureus [1]): 64 µg/mL (≈ 175 µM); MBC90 (Staphylococcus aureus [1]): 256 µg/mL (≈ 701 µM); MBC50 (Enterococcus faecalis [3]): 64 µg/mL (≈ 175 µM); MBC90 (Enterococcus faecalis [3]): 128 µg/mL (≈ 350 µM)
CN[C@H](CC(C)C)C(=O)N[C@H]1C(=O)N[C@@H](CC(N)=O)C(=O)N[C@H]2C(=O)N[C@H]3C(=O)N[C@H](C(=O)N[C@H](C(=O)O)c4cc(O)cc(O)c4-c4cc3ccc4O)[C@H](O)c3ccc(c(Cl)c3)Oc3cc2cc(c3O[C@@H]2O[C@H](CO)[C@@H](O)[C@H](O)[C@H]2O[C@H]2C[C@](C)(N)[C@H](O)[C@H](C)O2)Oc2ccc(cc2Cl)[C@H]1O [VANCOMYCIN]	0.5 (≈ 0.345 µM)	2 (≈ 1.38 µM)	32 (≈ 22.1 µM)	64 (≈ 44.2 µM)	8 (≈ 5.52 µM)	16 (≈ 11 µM)	0.5 (≈ 0.345 µM)	1 (≈ 0.69 µM)	1 (≈ 0.69 µM)	2 (≈ 1.38 µM)	0.5 (≈ 0.345 µM)	1 (≈ 0.69 µM)	0.5 (≈ 0.345 µM)	2 (≈ 1.38 µM)	0.5 (≈ 0.345 µM)	1 (≈ 0.69 µM)	2 (≈ 1.38 µM)	4 (≈ 2.76 µM)	1 (≈ 0.69 µM)	2 (≈ 1.38 µM)	MBC50 (Staphylococcus aureus [1]): 0.5 µg/mL (≈ 0.345 µM); MBC90 (Staphylococcus aureus [1]): 2 µg/mL (≈ 1.38 µM); MBC50 (Enterococcus faecalis [3]): 64 µg/mL (≈ 44.2 µM); MBC90 (Enterococcus faecalis [3]): 256 µg/mL (≈ 177 µM)
CCCCCCCCCCCCCCCC(=O)N[C@@H](CCCCN)C(=O)N[C@@H](CCCCN)C(=O)O	4 (≈ 7.8 µM)	8 (≈ 15.6 µM)	2 (≈ 3.9 µM)	4 (≈ 7.8 µM)	4 (≈ 7.8 µM)	16 (≈ 31.2 µM)	2 (≈ 3.9 µM)	16 (≈ 31.2 µM)	2 (≈ 3.9 µM)	4 (≈ 7.8 µM)	1 (≈ 1.95 µM)	2 (≈ 3.9 µM)	8 (≈ 15.6 µM)	16 (≈ 31.2 µM)	4 (≈ 7.8 µM)	8 (≈ 15.6 µM)	4 (≈ 7.8 µM)	8 (≈ 15.6 µM)	2 (≈ 3.9 µM)	4 (≈ 7.8 µM)	MBC90 (Enterococcus faecalis [3]): 16 µg/mL (≈ 31.2 µM); Activity (Erythrocyte [6]): Active
C[C@H]1c2cccc(O)c2C(=O)C2=C(O)[C@]3(O)C(=O)C(C(N)=O)=C(O)[C@@H](N(C)C)[C@@H]3[C@@H](O)[C@@H]21.O [DOXYCYCLINE]	4	16	16	64	32	128	1	2	8	16	2	8	8	32	2	8	16	64	4	32	–
